Legend:
[1] = Pharmacokinetics assay in rats after intragastrical administration; type: in vivo, Sprague-Dawley (SD) rats; details: SD rats, intragastric, 2 mg/kg; for AUC / Cmax / Vd/F / CL/F / half-life / MRT: both sexes, Sprague-Dawley, rat, plasma, po; for AUC: read-out: Area Under Curve AUC; for Cmax: read-out: Plasma Concentration Cmax; for Vd/F: read-out: Apparent Distribution Volume Vz/F; for CL/F: read-out: Clearance CLz/F; for half-life: read-out: Half-Life T½ (converted); for MRT: read-out: Mean Residence Time MRT
Excerpt: Test Example 3. Pharmacokinetics Assay of the Compounds of the Present Invention
Rats were used as test animals. […] The pharmacokinetic behavior of the compounds of the present invention was studied and evaluated in rats.
56 healthy adult Sprague-Dawley (SD) rats, half male and half female, were purchased from SINO-BRITSH SIPPR/BK LAB. ANIMAL LTD., CO, with License No.: SCXK (Shanghai) 2008-0016.
2.3 Preparation of the Test Compounds
A certain amount of the test compound was weighed, and added with 5% by volume of DMSO, 5% by volume of Tween 80 and 90% normal saline to prepare a 0.2 mg/mL colorless, clear and transparent solution.
After an overnight fast, SD rats were intragastrically administered at a dose of 2.0 mg/kg and an administration volume of 10.0 mL/kg.
Blood (0.2 mL) was taken from the orbital sinus before administration and at 0.5, 1.0, 2.0, 4.0, 6.0, 8.0, 11.0 and 24.0 hours after administration. The samples were stored in heparin anticoagulation tubes, and centrifuged for 10 minutes at 3500 rpm at 4° C. to separate the blood plasma. The plasma samples were stored at −20° C. The rats were fed 2 hours after administration.
The content of the test compound in the plasma of rats after intragastric administration of different concentrations of the drug was determined: 25 μL of rat plasma at each time after administration was taken and added with 30 μL (100 ng/mL) of the internal standard solution of camptothecin and 200 μL of acetonitrile, shaken vertically for 5 minutes, and centrifuged for 10 minutes (4000 rpm). 3.0 μL of the supernatant was taken from the plasma samples for LC/MS/MS analysis.
4. Results of Pharmacokinetic Parameters
Pharmacokinetic parameters of the compounds of the present invention in rats are shown below.

human blood = assay: In vitro anticoagulant effect on human blood (APTT, CT2); details: concentration corresponding to 2 times the APTT of the blank control, human plasma
Method: Test Example 2: Determination of In Vitro Anticoagulant Effect of the Compounds of the Present Invention on Human Blood
(§1) 1. Experimental Materials
Plasma: Human blood was collected in blood collection tubes containing no anticoagulant, and then 3.8% sodium citrate (volume ratio 1:9) was added. The tubes were centrifuged at 2500 rpm for 10 minutes at room temperature, and then the plasma was collected and stored at −80° C.;
Reagents: APTT reagent (Activated partial thromboplastin time assay kit, SIEMENS, Art. No. B4218-1), calcium chloride solution;
Instrument: Coagulation instrument (SYSMEX, CA-500).
The divided plasma was melted at room temperature and mixed well. 10000 μM the test compound dissolved in 100% DMSO was diluted to 3000, 300, 200, 150, 75, 30, 10, 3, 0.3 μM with 100% DMSO, and the blank was 100% DMSO. The reagent, plasma, and compound were placed in corresponding positions in the coagulation instrument, and APTT detection of the compound was carried out.
Curve fitting was carried out by graphpad and CT2 was calculated, i.e., the concentration of the compound corresponding to 2 times the APTT of the blank control.

[2] = molecular target: Coagulation Factor XIa protease (Homo sapiens (Human), UniProt P03951); assay: Inhibition of Factor XIa detected by absorption photometry; type: biochemical; details: absorbance at 405 nm, 10 minutes at 37° C.
Sequence of Coagulation Factor XIa protease (P03951 388-625): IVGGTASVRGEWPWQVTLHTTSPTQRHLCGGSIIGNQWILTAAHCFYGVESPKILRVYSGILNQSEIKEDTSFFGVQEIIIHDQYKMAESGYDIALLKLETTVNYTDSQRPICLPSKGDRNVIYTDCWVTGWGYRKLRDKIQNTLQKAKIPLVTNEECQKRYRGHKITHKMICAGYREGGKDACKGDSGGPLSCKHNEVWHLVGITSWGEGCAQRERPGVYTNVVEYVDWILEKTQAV
Sequence of Coagulation Factor XIa protease (P03951 19-387 partner): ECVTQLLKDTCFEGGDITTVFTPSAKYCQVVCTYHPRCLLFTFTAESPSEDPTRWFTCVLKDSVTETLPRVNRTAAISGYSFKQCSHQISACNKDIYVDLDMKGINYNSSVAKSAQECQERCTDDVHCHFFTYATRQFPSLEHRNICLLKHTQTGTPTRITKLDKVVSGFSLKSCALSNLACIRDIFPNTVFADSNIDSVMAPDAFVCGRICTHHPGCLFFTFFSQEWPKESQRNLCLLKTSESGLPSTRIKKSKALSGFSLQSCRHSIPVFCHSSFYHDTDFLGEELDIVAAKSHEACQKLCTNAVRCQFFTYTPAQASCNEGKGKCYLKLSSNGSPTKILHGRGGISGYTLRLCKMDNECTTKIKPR
Method: Test Example 1: Biological Activity of the Compounds of the Present Invention on
The Inhibition of Factor XIa Detected by Absorption Photometry
as §1
Enzyme: Coagulation Factor XIa protease (Abcam, Art. No ab62411)
Substrate: Coagulation Factor XIa specific substrate (HYPHEN1310 med, Art. No. Biophen cs-21(66))
2. Experimental Procedure
20 mM of test compound dissolved in 100% DMSO was diluted to 200, 20, 2, 0.2, 0.02, 0.002 μM with 100% DMSO; 1 μl of the compound was added to each well in a 384-well plate, blank and control wells were replaced with DMSO. The plate was centrifuged to remove the compound to the bottom. 10 μl (2.5 μg/ml) of FXIa enzyme solution was added to each well, and 10 μl of buffer was added to the blank well. The plate was centrifuged to remove the enzyme solution to the bottom.
Finally, 10 μl of 2 mM substrate were added to each well, and the plate was centrifuged to remove the substrate solution to the bottom.
The plate was incubated for 10 minutes at 37° C.; and then the absorbance was measured at 405 nm.

`COc1cn([C@@H](Cc2ccncc2)C(=O)Nc2ccc(C(=O)O)cc2)c(=O)cc1-c1cc(Cl)ccc1C#N` [Comparative Example 1, (S)-4-(2-(4-(5-chloro-2-cyanophenyl)-5-methoxy-2-oxopyridin-1(21)-yl)-3-(pyridin-4-yl)propanamido)benzoic acid, reference compound] showed an AUC [1] of 7.27 ± 3.37 ng·h/mL and a Cmax [1] of 7.02 ± 2.97 ng/mL.
For `COc1cn([C@@H](CCOC(C)(C)C)C(=O)Nc2ccc3nccnc3c2)c(=O)cc1-c1cc(Cl)ccc1-c1nc(C)no1` [Comparative Example 2, (S)-4-(tert-butoxy)-2-(4-(5-chloro-2-(3-methyl-1,2,4-oxadiazol-5-yl)phenyl)-5-methoxy-2-oxopyridin-1 (2H)-yl)-N-(quinoxalin-6-yl)butanamide, reference compound], the “CT2, concentration doubling APTT” value (human blood; Table 3 comparison) was 13.1 µM.
With `COc1cn([C@H](Cc2ccccc2)C(=O)Nc2ccc(C(=O)O)cc2)c(=O)cc1-c1cc(Cl)ccc1C(C)=O` [Example 6, (R)-4-(2-(4-(2-acetyl-5-chlorophenyl)-5-methoxy-2-oxopyridin-1(2H)-yl)-3-phenylpropanamido)benzoic acid] the “CT2, concentration doubling APTT” value (human blood; Table 2) was greater than 10000 µM.
For `COc1cn(C(Cc2ccccc2)C(=O)Nc2ccc(C(=O)O)cc2F)c(=O)cc1-c1cc(Cl)ccc1C(C)=O` (stereo not shown) [Example 29, 4-(2-(4-(2-acetyl-5-chlorophenyl)-5-methoxy-2-oxopyridin-1 (2H)-yl)-3-phenylpropanamido)-3-fluorobenzoic acid], the IC50 [2] was 0.09 µM, the Vd/F [1] was 45.4 ± 16.5 L/kg and the AUC [1] was 382 ± 98 ng·h/mL. The CL/F [1] was 92.5 ± 28.3 mL/min/kg, the half-life [1] was 6.06 ± 2.99 h and the MRT [1] was 5 ± 2.57 h. The Cmax [1] was 167 ± 45 ng/mL.
In the case of `COc1cn([C@@H](Cc2cccnc2)C(=O)Nc2ccc(C(=O)O)cc2)c(=O)cc1-c1cc(Cl)ccc1C(C)=O` [Example 84, (S)-4-(2-(4-(2-acetyl-5-chlorophenyl)-5-methoxy-2-oxopyridin-1(2H)-yl)-3-(pyridin-3-yl)propanamido)benzoic acid], the IC50 [2] is reported as 0.042 µM, the “AUC difference, Example 84 versus Comparative Example 1” value [1] is reported as 7.5 times and the “Cmax difference, Example 84 versus Comparative Example 1” value [1] is reported as 6.9 times. The Vd/F [1] was 37.9 ± 8.23 L/kg, the AUC [1] was 54.6 ± 19.1 ng·h/mL and the CL/F [1] was 673 ± 235 mL/min/kg. For the same compound, the half-life [1] was 0.68 ± 0.14 h, the MRT [1] was 1.2 ± 0.2 h and the Cmax [1] was 48.8 ± 8.8 ng/mL.
In the case of `CCC(=O)c1ccc(Cl)cc1-c1cc(=O)n(C(Cc2ccn(C3CC3)n2)C(=O)Nc2ccc(C(=O)O)cc2)cc1OC` (stereo not shown) [Example 91, 4-(2-(4-(5-chloro-2-propionylphenyl)-5-methoxy-2-oxopyridin-1 (2H)-yl)-3-(1-cyclopropyl-1H-pyrazol-3-yl)propanamido)benzoic acid], the “CT2, concentration doubling APTT” value (human blood; Table 2) is reported as 2.1 µM.
`COCCC(C(=O)Nc1ccc(C(=O)O)cc1)n1cc(OC)c(-c2c(C(C)=O)ccc(Cl)c2F)cc1=O` (stereo not shown) [Example 146, 4-(2-(4-(6-acetyl-3-chloro-2-fluorophenyl)-5-methoxy-2-oxopyridin-1(21)-yl)-4-methoxvbutanamido)benzoic acid] showed an IC50 [2] of 0.037 µM.
In the case of `COCCC(C(=O)Nc1ccc(C(=O)O)cc1)n1cc(OC)c(-c2cc(Cl)ccc2C(C)=O)cc1=O` (stereo not shown) [Example 147, 4-(2-(4-(2-acetyl-5-chlorophenyl)-5-methoxy-2-oxopyridin-1(2H)-yl)-4-methoxybutanamido)benzoic acid], the IC50 [2] is reported as 0.056 µM.
With `CCCCC(C(=O)Nc1ccc(C(=O)O)cc1)n1cc(OC)c(-c2cc(Cl)ccc2C(C)=O)cc1=O` (stereo not shown) [Example 155, 4-(2-(4-(2-acetyl-5-chlorophenyl)-5-methoxy-2-oxopyridin-1(2H)-yl)hexanamido)benzoic acid] the IC50 [2] was 0.081 µM.
For `COc1cn(C(CC2(C)CC2)C(=O)Nc2ccc(C(=O)O)cc2)c(=O)cc1-c1cc(Cl)ccc1C(C)=O` (stereo not shown) [Example 158, 4-(2-(4-(2-acetyl-5-chlorophenyl)-5-methoxy-2-oxopyridin-1(2H)-yl)-3-(1-methylcyclopropyl)propanamido)benzoic acid], the IC50 [2] was 0.046 µM.
`COc1cn(C(CC2CCC2)C(=O)Nc2ccc(C(=O)O)cc2)c(=O)cc1-c1c(C(C)=O)ccc(Cl)c1F` (stereo not shown) [Example 159, 4-(2-(4-(6-acetyl-3-chloro-2-fluorophenyl)-5-methoxy-2-oxopyridin-1(2H)-yl)-3-cyclobutylpropanamido)benzoic acid] showed an IC50 [2] of 0.033 µM.
`COc1cn([C@@H](CC2CCC2)C(=O)Nc2ccc(C(=O)O)cc2)c(=O)cc1-c1c(C(C)=O)ccc(Cl)c1F` [Example 161, (S)-4-(2-(4-(6-acetyl-3-chloro-2-fluorophenyl)-5-methoxy-2-oxopyridin-1(2H)-yl)-3-cyclobutylpropanamido)benzoic acid] gave an IC50 [2] of 13.1 µM.
`COc1cn(C(CCOC2CCC2)C(=O)Nc2ccc(C(=O)O)cc2)c(=O)cc1-c1cc(Cl)ccc1C(C)=O` (stereo not shown) [Example 162, 4-(2-(4-(2-acetyl-5-chlorophenyl)-5-methoxy-2-oxopyridin-1(2H)-yl)-4-cyclobutoxybutanamido)benzoic acid] gave an IC50 [2] of 0.035 µM.
`COc1cn(C(CC2CC2)C(=O)Nc2ccc(C(=O)O)cc2)c(=O)cc1-c1cc(Cl)ccc1C(C)=O` (stereo not shown) [Example 167, 4-(2-(4-(2-acetyl-5-chlorophenyl)-5-methoxy-2-oxopyridin-1(2H)-yl)-3-cyclopropylpropanamido)benzoic acid] showed an IC50 [2] of 0.092 µM.
Work on `COc1cn([C@@H](CC2CC2)C(=O)Nc2ccc(C(=O)O)cc2)c(=O)cc1-c1cc(Cl)ccc1C(C)=O` [Example 168, (S)-4-(2-(4-(2-acetyl-5-chlorophenyl)-5-methoxy-2-oxopyridin-1(2H)-yl)-3-cyclopropylpropanamido)benzoic acid] yielded an IC50 [2] of 0.043 µM.
Work on `COc1cn([C@@H](CC2CCC2)C(=O)Nc2ccc(C(=O)O)cc2)c(=O)cc1-c1cc(Cl)ccc1C(C)=O` [Example 171, (S)-4-(2-(4-(2-acetyl-5-chlorophenyl)-5-methoxy-2-oxopyridin-1(2H)-yl)-3-cyclobutylpropanamido)benzoic acid] yielded an IC50 [2] of 0.035 µM, a Vd/F [1] of 6.24 ± 2.15 L/kg and an AUC [1] of 701 ± 175 ng·h/mL. It also gave a CL/F [1] of 49.9 ± 12.5 mL/min/kg, a half-life [1] of 1.45 ± 0.32 h and an MRT [1] of 1.71 ± 0.32 h. It also gave a Cmax [1] of 462 ± 116 ng/mL.
`COc1cn([C@H](CC2CCC2)C(=O)Nc2ccc(C(=O)O)cc2)c(=O)cc1-c1cc(Cl)ccc1C(C)=O` [Example 172, (R)-4-(2-(4-(2-acetyl-5-chlorophenyl)-5-methoxy-2-oxopyridin-1(2H)-yl)-3-cyclobutylpropanamido)benzoic acid] showed an IC50 [2] of 8.92 µM.
`COc1cn(C(CC2CC(C)(C)C2)C(=O)Nc2ccc(C(=O)O)cc2)c(=O)cc1-c1cc(Cl)ccc1C(C)=O` (stereo not shown) [Example 173, 4-(2-(4-(2-acetyl-5-chlorophenyl)-5-methoxy-2-oxopyridin-1(2H)-yl)-3-(3,3-dimethylcyclobutyl)propanamido)benzoic acid] gave an IC50 [2] of 0.1 µM.
In the case of `COc1cn(C(CC2CCCCO2)C(=O)Nc2ccc(C(=O)O)cc2)c(=O)cc1-c1cc(Cl)ccc1C(C)=O` (stereo not shown) [Example 176], the IC50 [2] is reported as 0.071 µM.

Source: patent publication US10633375B2, “Oxopicolinamide derivative, preparation method therefor and pharmaceutical use thereof” (Jiangsu Hengrui Medicine Co., Ltd., priority 2016, dated 2020)
